From US20150025120A1, “PYRAZOLE-ALCOHOL COMPOUNDS AND PHARMACEUTICAL USE THEREOF” (JAPAN TOBACCO INC., priority 2013, published 2015)
pIC50: −log10 of the molar value.

Experiments:
[1] = tested on: tissue PDH activity; test: Ex vivo PDH activation assay (liver and epididymal adipose tissue after oral administration); assay type: in vivo, Sprague-Dawley rats; details: 3 mg/kg, rat, mean ± standard deviation
Description: The action of test compound on tissue PDH activity was evaluated. NADH production was detected via p-iodonitrotetrazolium violet (INT)-coupled system to measure PDH activity.
Normal male Sprague-Dawley rats were randomly allocated to the vehicle group and the test compound groups. The vehicle (0.5% aqueous methylcellulose solution, 5 mL/kg) or the test compound was orally administered to the rats. At 5 or 20 hr after administration, the rats were anesthetized with an intraperitoneal injection of sodium pentobarbital (60 mg/kg), and liver slices and epididymal adipose tissues were collected.
(§1) To the liver slices were rapidly added 9 volumes of ice-cold homogenization buffer (0.25 mol/L sucrose, 5 mmol/L tris(hydroxymethyl)aminomethane hydrochloride (pH 7.5), 2 mmol/L EDTA), and the mixtures were homogenized using a Polytron homogenizer. The homogenates were centrifuged at 600×g, 4° C. for 10 min to obtain the supernatant. The supernatants (1 mL) were centrifuged at 16,000×g, 4° C. for 10 min to collect the precipitates. The precipitates were washed by resuspension in the homogenization buffer (1 mL) and centrifuged in the same manner. The precipitates were frozen with liquid nitrogen and stored at −80° C. as the liver mitochondrial fraction.
as §1, with “adipose tissues” for “liver slices”, “3” for “9”, “of an” for “of”, “buffer,” for “buffer (0.25 mol/L sucrose, 5 mmol/L tris(hydroxymethyl)aminomethane hydrochloride (pH 7.5), 2 mmol/L EDTA),”, “supernatants” for “supernatants (1 mL)”, “adipose tissue” for “liver”
The mitochondrial fractions were thawed and suspended with the sample buffer (0.25 mol/L sucrose, 20 mmol/L tris(hydroxymethyl)aminomethane hydrochloride (pH 7.5), 50 mmol/L potassium chloride, and 1 mL/L 4-(1,1,3,3-tetramethylbutyl)phenyl-polyethylene glycol (Triton X-100)). Active PDH activity (PDHa activity) and total PDH activity (PDHt activity) were measured to evaluate the PDH activity. For the measurement of the PDHt activity, equal amounts of the mitochondrial suspension and the activation buffer (0.25 mol/L sucrose, 20 mmol/L tris(hydroxymethyl)aminomethane hydrochloride (pH 7.5), 50 mmol/L potassium chloride, 1 mL/L Triton X-100, 4 mmol/L calcium chloride, 40 mmol/L magnesium chloride, 10 mmol/L sodium dichloroacetate) were mixed, and the mixtures were incubated at 37° C. for 10 min. Forty microliters of the mitochondrial suspensions diluted with a sample buffer were added to a 96-well microplate for activity measurement and blank measurement. Then 180 μL of the reaction mixture (0.056 mmol/L potassium phosphate buffer (pH 7.5), 5.6 mmol/L DL-carnitine, 2.8 mmol/L NAD, 0.22 mmol/L thiamin pyrophosphate, 0.11 mmol/L Coenzyme A, 1.1 mL/L Triton X-100, 1.1 mmol/L magnesium chloride, 1.1 g/L bovine serum albumin, 0.67 mmol/L INT, 7.2 μmol/L phenazine methosulfate, 28 mmol/L sodium oxamate) was added to each well, and then 20 μL of 50 mmol/L sodium pyruvate for activity measurement or water for blank measurement were added. The mixtures were incubated at room temperature under shading. The absorbances at 500-750 nm, which were attributable to reduction of INT, the final electron acceptor, were measured using a microplate reader over time and the changes in the absorbance were calculated. The PDH activity was calculated by subtraction of the change in absorbance of the blank well from that of the activity measurement well. The percentage of the PDHa activity to the PDHt activity was calculated and taken as an index of the PDH activation.

[2] = target: T1, human PDHK2 (hPDHK2) (Homo sapiens, UniProt Q15119); test: Inhibitory action of PDHK2 activity in vitro (residual PDH activity after kinase reaction); assay type: biochemical
T1 construct: made in house; host or cells: Escherichia coli BL21(DE3), pET17b
Description: The inhibitory action of PDHK activity was assessed indirectly by measuring the residual PDH activity after kinase reaction in the presence of a test compound.
In the case of human PDHK2 (hPDHK2, Genbank Accession No. BC040478.1), modified hPDHK2 cDNA wherein FLAG-Tag sequence was added to the N terminus of hPDHK2 cDNA clone (pReceiver-M01/PDK2-GeneCopoeia) was prepared by PCR and cloned into a vector (pET17b-Novagen). The recombinant construct was transformed into Escherichia coli (DH5α-TOYOBO). The recombinant clones were identified, and plasmid DNA was isolated and subjected to the DNA sequence analysis. One clone which had the expected nucleic acid sequence was selected for expression work.
For expression of hPDHK2 activity, Escherichia coli strain BL21(DE3) cells (Novagen) were transformed with the pET17b vector containing modified hPDHK2 cDNA. The Escherichia coli were grown to an optical density 0.6 ([…]) at 30° C. Protein expression was induced by the addition of 500 μmol/L isopropyl-β-thiogalactopyranoside. The Escherichia coli were cultured at 30° C. for 5 hr and harvested by centrifugation. Resuspension of the Escherichia coli paste was disrupted by a microfluidizer. FLAG-Tagged protein was purified using FLAG affinity gel. The gel was washed with 20 mmol/L HEPES-NaOH, 500 mmol/L sodium chloride, 1% ethylene glycol, and 0.1% Pluronic F-68 (pH 8.0), and the binding protein was eluted with 20 mmol/L HEPES-NaOH, 100 μg/mL FLAG peptide, 500 mmol/L sodium chloride, 1% ethylene glycol, and 0.1% Pluronic F-68 (pH 8.0). The eluted fractions containing FLAG-Tagged protein were pooled, dialyzed against 20 mmol/L HEPES-NaOH, 150 mmol/L sodium chloride, 0.5 mmol/L EDTA, 1% ethylene glycol, and 0.1% Pluronic F-68 (pH 8.0), and preserved at −80° C.
0.05 U/mL PDH and 0.8 μg/mL hPDHK2 were mixed in a buffer (50 mmol/L 3-morpholinopropanesulfonic acid (pH 7.0), 20 mmol/L dipotassium hydrogen phosphate, 60 mmol/L potassium chloride, 2 mmol/L magnesium chloride, 0.4 mmol/L EDTA, and 0.2% Pluronic F-68, 2 mmol/L dithiothreitol), and the mixture was incubated at 4° C. overnight to obtain a PDH/hPDHK2 complex. The test compounds were diluted with DMSO. […] DMSO (1.5 μL) was added to control wells instead of the test compound. […] The mixture was incubated at room temperature for 90 min, and the residual PDH activity was measured. The absorbance at 340 nm before and after PDH reaction was measured using a microplate reader to detect NADH produced by the PDH reaction. The hPDHK2 inhibition rate (%) of the test compound was calculated from the formula [{(PDH activity of test compound−PDH activity of control)/PDH activity of blank−PDH activity of control)}×100].

[3] = adipose tissue, 5 hr after oral administration
[4] = adipose tissue, 20 hr after oral administration
[5] = liver, 5 hr after oral administration
[6] = liver, 20 hr after oral administration

Structure (SMILES)	PDHa activity (% PDHt activity) [1, 3] [% PDHt activity]	PDHa activity (% PDHt activity) [1, 4] [% PDHt activity]	PDHa activity (% PDHt activity) [1, 5] [% PDHt activity]	PDHa activity (% PDHt activity) [1, 6] [% PDHt activity]	pIC50 [2]
NC(=O)Cn1cc(-c2cc(OCCC34CC5CC(CC(O)(C5)C3)C4)cc3c2-c2ccccc2[C@]3(O)C(F)(F)F)cn1 [compound (A), 2-(4-{(9R)-9-Hydroxy-2-[2-(3-hydroxyadamantan-1-yl)ethoxy]-9-(trifluoromethyl)-9H-fluoren-4-yl}-1H-pyrazol-1-yl)acetamide, reference compound]	32 ± 14	24 ± 7	35 ± 6	16 ± 10	
C[C@H](O)COc1cc(-c2cnn(CC(C)(C)O)c2)c2c(c1)[C@@](O)(C(F)(F)F)c1ccccc1-2 [compound (1), (9R)-4-[1-(2-hydroxy-2-methylpropyl)-1H-pyrazol-4-yl]-2-((2S)-2-hydroxypropoxy)-9-(trifluoromethyl)-9H-fluoren-9-ol]	64 ± 5	56 ± 6	60 ± 8	13 ± 2	8.04
CC(C)(O)COc1cc(-c2cnn(CC(C)(C)O)c2)c2c(c1)[C@@](O)(C(F)(F)F)c1ccccc1-2 [compound (2), (9R)-2-(2-hydroxy-2-methylpropoxy)-4-[1-(2-hydroxy-2-methylpropyl)-1H-pyrazol-4-yl]-9-(trifluoromethyl)-9H-fluoren-9-ol]	58 ± 10	36 ± 7	67 ± 9	16 ± 9	8.01
CC(C)(O)CCCOc1cc(-c2cnn(CC(C)(C)O)c2)c2c(c1)[C@@](O)(C(F)(F)F)c1ccccc1-2 [compound (4), (9R)-2-(4-hydroxy-4-methylpentyloxy)-4-[1-(2-hydroxy-2-methylpropyl)-1H-pyrazol-4-yl]-9-(trifluoromethyl)-9H-fluoren-9-ol]	62 ± 13		68 ± 11		8.18
Cn1cc(-c2cc(OCC(C)(C)O)cc3c2-c2ccccc2[C@]3(O)C(F)(F)F)cn1 [compound (B), (9R)-2-(2-Hydroxy-2-methylpropoxy)-4-(1-methyl-1H-pyrazol-4-yl)-9-(trifluoromethyl)-9H-fluoren-9-ol, reference compound]	59 ± 5	30 ± 4	43 ± 7	10 ± 3	
